From patent US7928129B1, “Nanomolar β-lactamase inhibitors” (Northwestern University, priority 2002, dated 2011)
Where two headings read alike, the source gives them in different places.

Columns and labels:
[1] = molecular target: T1, AmpC β-lactamase (Escherichia coli, UniProt P00811); assay: biochemical; conditions: for fold more potent than the lead compound lacking the m.carboxyphenyl side chain: 15 versus 1, 16 versus 4
T1 construct: made in house
Procedure: Enzymology. The phenylglycylboronic acids of the preceding examples were dissolved in DMSO at a concentration of 50 mM; more dilute stocks (10 mM to 1 μM) were subsequently prepared as necessary. Kinetic measurements were performed using nitrocefin as substrate in 50 mM Tris buffer, pH 7.0 and monitored in an HP8453 UV/Vis spectrophotometer. The concentration of AmpC was determined spectrophotometrically in stock solutions made from lyophilized powder; this enzyme had been previously expressed and purified. Usher, K. C., Blaszczak, L. C., Weston, G. S., Shoichet, B. K. and Remington, S. J. Biochemistry 1998, 37, 16082-16092. […] To determine K, values, inhibitor and enzyme were incubated together at their final concentration in the cuvettes for five minutes before the reaction was initiated by the addition of 200 μM substrate. […] Waley, S. G. Biochem. J. 1982, 205 631-633. […] In all reactions, rates were measured after reactions had overcome their initial lag phase and had reached a steady state.
(§1) Mutant Enzymology. The glycylboronic acids were dissolved in DMSO at a concentration of 50 mM; more dilute stocks were subsequently prepared as necessary. Kinetic measurements were performed using nitrocefin as a substrate in 50 mM Tris buffer, pH 7.0, and monitored at 480 nm in an HP9453 UV-vis spectrophotometer. To prevent overestimation of inhibition due to sequestration of the enzyme on the walls of the cuvette during the reaction, 0.1% BSA was added to the buffer in all reactions. […] To determine Ki values, inhibitor and enzyme were incubated together in the cuvettes for 5 min before reaction was initiated by the addition of substrate. 200 μM nitrocefin was used for the reactions with L119A and L293A, whereas 400 μM nitrocefin was used for the reactions with N289A to shorten the lag phase of the reaction. For the reactions with N289A, rates were calculated from the later portions of the curve, once the reactions had achieved steady state. These rates were compared with portions of the uninhibited curves that corresponded to the same range of substrate concentrations.

[2] = molecular target: T2, AmpC N289A (Escherichia coli, UniProt P00811, N305A); assay: biochemical; format: biochemical
T2 construct: made in house
Procedure: (§2) Enzyme mutagenesis and preparation. Mutants of AmpC were created using the overlap extension polymerase chain reaction (23). Mutant enzymes were expressed as described. AmpC N289A and L293A were purified on an m-aminophenylboronic acid affinity column. AmpC L119A was purified on an S-Sepharose ion-exchange column. The purified enzymes were concentrated using Centricon spin concentrators.
as §1

[3] = tested on: Escherichia coli 72929 Hip; assay: MIC, synergy with ceftazidime, microdilution; format: cell-based; conditions: E. coli 1, ceftazidime to inhibitor 1:1 in combinations
Procedure: (§3) Microbiology. Compounds 16 and 21 were tested for synergy with the β-lactam ceftazidime against pathogenic bacteria from clinical isolates at the Hospital Ramón y Cajal; these bacteria were resistant to β-lactams due to expression of a class C β-lactamase. Strains of bacteria tested were: Citrobacter freundii mut756-CAZ, Escherichia coli 72929 Hip, E. coli 4774 Hip (Table 4, E. coli 1 and 2, respectively), Enterobacter cloacae 72527 ED, E. cloacae 8411 CAZ-R clon7, E. cloacae 12991 ED (Table 4, E. cloacae 1, 2, and 3, respectively), Pseudomonas aeruginosa 279/88, and P. aeruginosa JMSMA7 (Table 4, P. aeruginosa 1 and 2, respectively). Minimum inhibitor concentration (MIC) values were determined with Mueller-Hinton Broth II using the microdilution method according to NCCLS guidelines. National Committee for Clinical Laboratory Standards, Methods for dilution antimicrobial susceptibility test for bacteria that grow aerobically. Approved Standard M7-A4, 1997, vol. 17, National Committee for Clinical Laboratory Standards, Villanova, Pa.

[4] = tested on: P. aeruginosa JMSMA7; assay: MIC, synergy with ceftazidime, microdilution; format: cell-based; conditions: Pseudomonas aeruginosa, P. aeruginosa 2, ceftazidime to inhibitor 1:1 in combinations
Procedure: as §3

[5] = molecular target: T1, AmpC β-lactamase; conditions: glycylboronic acid previously found, no buffer footnote; cited from earlier work
[6] = molecular target: T3, AmpC L119A (Escherichia coli, UniProt P00811, L135A); assay: biochemical; format: biochemical
T3 construct: made in house
Procedure: as §2, §1

[7] = molecular target: T4, AmpC L293A (Escherichia coli, UniProt P00811, L309A); assay: biochemical; format: biochemical
T4 construct: made in house
Procedure: as §2, §1

[8] = molecular target: elastase (porcine pancreatic) (Sus scrofa, UniProt P00772); assay: biochemical; conditions: for selectivity for AmpC over elastase: ratio of IC50 values
Procedure: (§4) Selectivity. The selectivity of compounds 16 and 21 was tested by determining their activity against the serine proteases α-chymotrypsin (bovine pancreatic), β-trypsin (bovine pancreatic), and elastase (porcine pancreatic), all from Sigma (St. Louis, Mo.). The substrates for α-chymotrypsin (succinyl-ala-ala-pro-phe-p-nitroanilide) and β-trypsin (N-benzoyl-L-arginine ethyl ester) were also purchased from Sigma. The elastase substrate (MeOSuc-Ala-Ala-Pro-Val-pNA) was purchased from Calbiochem (San Diego, Calif.). Substrates were diluted from 20 mM DMSO stock solutions, and all reactions were performed in 50 mM Tris buffer, pH 7.0, 25° C. For α-chymotrypsin, 0.001 mg/ml of enzyme and the inhibitor at its final concentration were incubated in the cuvette for five minutes before the reaction was initiated by the addition of 200 μM of substrate. The reaction was monitored at 410 nm. For β-trypsin, 0.004 mg/ml of enzyme and the inhibitor at its final concentration were incubated in the cuvette for five minutes before the reaction was initiated by the addition of 200 μM of substrate. The reaction was monitored at 253 nm. For elastase, 0.006 mg/ml of enzyme and the inhibitor at its final concentration were incubated in the cuvette for five minutes before the reaction was initiated by the addition of 640 μM of substrate. The reaction was monitored at 385 nm. Initial rate fits to the absorbance data for the first 100 seconds were used to determine reaction velocities.

[9] = molecular target: α-chymotrypsin (bovine pancreatic) (Bos taurus, UniProt P00766); assay: biochemical; conditions: for selectivity for AmpC over α-chymotrypsin: ratio of IC50 values
Procedure: as §4

[10] = molecular target: β-trypsin (bovine pancreatic) (Bos taurus, UniProt P00760); assay: Selectivity: serine protease β-trypsin; format: biochemical; conditions: 50 mM Tris pH 7.0, 25° C.
From the text: Selectivity. […] The reaction was monitored at 410 nm. […] The reaction was monitored at 253 nm. […] The reaction was monitored at 385 nm.

[11] = tested on: eight clinically isolated bacterial pathogens producing class C β-lactamases; format: cell-based; conditions: against all strains
Procedure: Microbiology. Compounds 16 and 21 were tested for synergy with the β-lactam ceftazidime against pathogenic bacteria from clinical isolates at the Hospital Ramón y Cajal; these bacteria were resistant to β-lactams due to expression of a class C β-lactamase. […] Minimum inhibitor concentration (MIC) values were determined with Mueller-Hinton Broth II using the microdilution method according to NCCLS guidelines. National Committee for Clinical Laboratory Standards, Methods for dilution antimicrobial susceptibility test for bacteria that grow aerobically. Approved Standard M7-A4, 1997, vol. 17, National Committee for Clinical Laboratory Standards, Villanova, Pa.

[12] = differential free energy of binding relative to compound 1, 298 K, positive = improved affinity

T1 sequence (P00811 20-377): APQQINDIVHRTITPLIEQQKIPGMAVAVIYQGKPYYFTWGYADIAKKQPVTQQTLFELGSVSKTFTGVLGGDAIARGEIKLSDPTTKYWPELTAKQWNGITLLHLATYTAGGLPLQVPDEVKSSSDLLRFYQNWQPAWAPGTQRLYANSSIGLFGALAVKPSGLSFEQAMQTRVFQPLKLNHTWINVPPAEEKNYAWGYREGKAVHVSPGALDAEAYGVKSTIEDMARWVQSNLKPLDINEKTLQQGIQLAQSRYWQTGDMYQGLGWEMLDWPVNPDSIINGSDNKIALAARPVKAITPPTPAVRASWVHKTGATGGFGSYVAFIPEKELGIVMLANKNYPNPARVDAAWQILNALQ
T2 sequence (P00811 20-377 N305A): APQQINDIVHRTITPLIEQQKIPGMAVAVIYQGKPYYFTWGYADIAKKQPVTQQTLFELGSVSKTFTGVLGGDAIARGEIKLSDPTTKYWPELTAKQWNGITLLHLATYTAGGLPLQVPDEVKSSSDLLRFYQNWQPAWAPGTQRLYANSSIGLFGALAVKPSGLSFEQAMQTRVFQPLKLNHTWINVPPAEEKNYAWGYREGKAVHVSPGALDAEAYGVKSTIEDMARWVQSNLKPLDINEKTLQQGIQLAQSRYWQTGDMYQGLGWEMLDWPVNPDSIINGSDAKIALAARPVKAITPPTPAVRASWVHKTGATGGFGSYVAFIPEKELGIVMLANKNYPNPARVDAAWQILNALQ
Chain of elastase (porcine pancreatic) (P00772 27-266): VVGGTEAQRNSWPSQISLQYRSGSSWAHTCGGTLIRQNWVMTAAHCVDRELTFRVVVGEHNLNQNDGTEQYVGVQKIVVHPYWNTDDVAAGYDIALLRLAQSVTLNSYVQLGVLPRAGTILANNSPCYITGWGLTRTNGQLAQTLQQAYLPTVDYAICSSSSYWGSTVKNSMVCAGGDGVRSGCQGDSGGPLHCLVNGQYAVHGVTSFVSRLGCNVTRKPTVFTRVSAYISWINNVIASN
T3 sequence (P00811 20-377 L135A): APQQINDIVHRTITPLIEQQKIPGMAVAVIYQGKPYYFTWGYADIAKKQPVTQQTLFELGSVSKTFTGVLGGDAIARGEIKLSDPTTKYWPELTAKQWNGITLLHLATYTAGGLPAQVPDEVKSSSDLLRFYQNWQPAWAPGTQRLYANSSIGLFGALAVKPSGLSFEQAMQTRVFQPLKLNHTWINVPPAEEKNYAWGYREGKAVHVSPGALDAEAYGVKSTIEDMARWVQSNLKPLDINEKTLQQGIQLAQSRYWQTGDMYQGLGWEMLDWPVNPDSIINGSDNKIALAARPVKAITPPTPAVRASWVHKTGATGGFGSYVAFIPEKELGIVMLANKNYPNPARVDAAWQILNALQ
T4 sequence (P00811 20-377 L309A): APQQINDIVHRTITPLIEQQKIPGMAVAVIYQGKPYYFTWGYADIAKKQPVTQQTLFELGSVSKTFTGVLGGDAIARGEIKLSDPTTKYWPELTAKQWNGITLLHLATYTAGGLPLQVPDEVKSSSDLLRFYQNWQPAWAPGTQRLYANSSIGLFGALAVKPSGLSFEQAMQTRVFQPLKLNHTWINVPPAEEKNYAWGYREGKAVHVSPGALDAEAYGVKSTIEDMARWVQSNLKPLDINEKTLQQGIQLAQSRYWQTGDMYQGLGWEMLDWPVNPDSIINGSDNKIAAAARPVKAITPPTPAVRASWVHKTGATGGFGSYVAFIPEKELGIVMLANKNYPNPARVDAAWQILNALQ
Chain of β-trypsin (bovine pancreatic) (P00760 24-246): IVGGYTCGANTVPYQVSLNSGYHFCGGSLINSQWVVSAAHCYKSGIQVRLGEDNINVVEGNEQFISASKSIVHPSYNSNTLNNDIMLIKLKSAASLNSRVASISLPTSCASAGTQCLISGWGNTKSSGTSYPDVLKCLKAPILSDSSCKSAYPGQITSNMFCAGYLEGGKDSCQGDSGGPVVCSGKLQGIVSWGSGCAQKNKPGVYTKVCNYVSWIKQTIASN

Compound `CC1(C)C2CC3OB([C@@H](NC(=O)Cc4cccs4)c4cccc(C=O)c4)O[C@@]3(C)C1C2` (single isomer, unassigned; (+)) [Compound 26] has a Ki [1] of 0.015 µM and a Ki [2] of 0.018 µM.

With `CC(C)(O/N=C(\C(=O)N[C@@H]1C(=O)N2C(C(=O)[O-])=C(C[n+]3ccccc3)CS[C@H]12)c1csc(N)n1)C(=O)O` [CAZ, ceftazidime] the MIC [3] was 32 µg/mL and the MIC [4] was 64 µg/mL.

With `CC(=O)NCB(O)O` [Compound 1, reference compound] the “ΔΔG from 1” value [1, 12] was 0.00 kcal/mol.

In the case of `CC(C)(O/N=C(\C(=O)NCB(O)O)c1csc(N)n1)C(=O)O` [Compound 3, reference compound], the “ΔΔG from 1 (kcal/mol)” value [1, 12] is listed as 4.04 — kcal/mol and the Ki [5] is listed as 0.02 µM.

`O=C(Cc1cccs1)NCB(O)O` [Compound 4, reference compound] gave a Ki [1] of 0.186 µM, a Ki [6] of 0.676 µM and a Ki [7] of 6.2 µM.

For `CC(=O)N[C@H](B(O)O)c1cccc(C(=O)O)c1` [Compound 15, (1R)-1-acetylamino-1-(3-carboxyphenyl)methylboronic acid], the Ki [1] was 0.13 µM, the “fold more potent than the lead compound lacking the m.carboxyphenyl side chain” value [1] was 150 fold and the “ΔΔG from 1” value [1, 12] was 2.95 kcal/mol.

With `O=C(Cc1cccs1)N[C@H](B(O)O)c1cccc(C(=O)O)c1` [Compound 16, (1R)-1-(2-thienylacetylamino)-1-(3-carboxyphenyl)methylboronic acid] the IC50 [1] was 0.0026 µM, the Ki [1] was 0.001 µM and the “type of inhibition of AmpC” value [1] was “time-dependent inhibition”. The Ki ([1]; 50 mM Tris pH 7.0, 200 μM nitrocefin, 5 min incubation) was 0.001 µM, the “fold more potent than the lead compound lacking the m.carboxyphenyl side chain” value [1] was 300 fold and the “ΔΔG from 1” value [1, 12] was 5.82 kcal/mol. For the same compound, the “improvement of binding energy by addition of the m.carboxyphenyl side chain” value ([1]; versus lead lacking the side chain) was 3.4 kcal/mol, the Ki [2] was 0.017 µM and the “reduction of affinity by the N289A substitution versus the wild-type enzyme” value [2] was 17 fold. For the same compound, the “ΔΔΔG, hydrogen bond energy between Asn289 and the inhibitor group” value ([2]; thermodynamic cycle, WT AmpC / N289A, mutant ligand 21) was 1.7 kcal/mol, the IC50 [8] was 500 µM and the “selectivity for AmpC over elastase” value [8] was 190,000 fold. For the same compound, the IC50 [9] was 150 µM, the “selectivity for AmpC over α-chymotrypsin” value [9] was 57,000 fold and the IC50 [10] was > 1000 µM. For the same compound, the synergy with ceftazidime [11] was “showed synergy”.

For `Cc1onc(-c2ccccc2Cl)c1C(=O)N[C@H](B(O)O)c1cccc(C(=O)O)c1` [Compound 17, (1R)-1-{[3-(2-Chlorophenyl)-5-methyl-isoxazole-4-carbonyl]-amino}-1-(3-carboxyphenyl)methylboronic acid], the Ki [1] was 5.7 µM, the “binding energy made worse by addition of the m.carboxyphenyl group” value ([1]; 17 versus 2) was “about 2 kcal/mol” and the “fold less potent (higher Ki) than compound 2 lacking the m.carboxyphenyl group” value ([1]; 17 versus 2) was 40 fold. The “ΔΔG from 1” value [1, 12] was 0.70 kcal/mol and the melting point was 180 to 190 °C.

For `O=C(Cc1cccs1)N[C@H](B(O)O)c1ccccc1` [Compound 21, (1R)-1-(2-thienylacetylamino)-1-phenylmethylboronic acid], the IC50 [1] was 0.09 µM, the Ki [1] was 0.035 µM and the “ΔΔG from 1” value [1, 12] was 3.71 kcal/mol. For the same compound, the “fold less active than compound 16” value ([1]; wild-type AmpC) was 35 fold, the Ki [6] was 0.012 µM and the “ΔΔΔG, interaction between the inhibitor phenyl ring and Leu119” value ([6]; thermodynamic cycle, WT AmpC / L119A, L=21, L′=4, negative = unfavorable) was -1.4 kcal/mol. For the same compound, the Ki [7] was 0.521 µM, the “ΔΔΔG, interaction between the inhibitor phenyl ring and Leu293” value ([7]; thermodynamic cycle, WT AmpC / L293A, L=21, L′=4, negative = unfavorable) was -0.5 kcal/mol and the “reduction of affinity by the L293→Ala substitution” value ([7]; versus wild-type AmpC) was 1.6 kcal/mol. The Ki [2] was 0.037 µM, the “fall in affinity relative to the affinity of 16 for the mutant” value ([2]; AmpC N289A) was 2 fold and the IC50 [8] was 128 µM. The “selectivity for AmpC over elastase” value [8] was 1,400 fold, the IC50 [9] was 6 µM and the “selectivity for AmpC over α-chymotrypsin” value [9] was 60 fold. The IC50 [10] was > 1000 µM, the synergy with ceftazidime [11] was “showed synergy” and the melting point was 90 to 100 °C.

`O=C(Cc1cccs1)N[C@@H]1C(=O)N2C(C(=O)O)=C(/C=C/c3ccc([N+](=O)[O-])cc3[N+](=O)[O-])CS[C@H]12` [nitrocefin, reference compound] showed a Km ([7]; read-out: KM of nitrocefin, L293A) of 33 µM and a Km ([2]; read-out: KM of nitrocefin, N289A) of 27 µM.
